pIC50: −log10 of the molar value.

Sequence of H1047R PIK3CA enzyme (P42336 whole entry H1047R): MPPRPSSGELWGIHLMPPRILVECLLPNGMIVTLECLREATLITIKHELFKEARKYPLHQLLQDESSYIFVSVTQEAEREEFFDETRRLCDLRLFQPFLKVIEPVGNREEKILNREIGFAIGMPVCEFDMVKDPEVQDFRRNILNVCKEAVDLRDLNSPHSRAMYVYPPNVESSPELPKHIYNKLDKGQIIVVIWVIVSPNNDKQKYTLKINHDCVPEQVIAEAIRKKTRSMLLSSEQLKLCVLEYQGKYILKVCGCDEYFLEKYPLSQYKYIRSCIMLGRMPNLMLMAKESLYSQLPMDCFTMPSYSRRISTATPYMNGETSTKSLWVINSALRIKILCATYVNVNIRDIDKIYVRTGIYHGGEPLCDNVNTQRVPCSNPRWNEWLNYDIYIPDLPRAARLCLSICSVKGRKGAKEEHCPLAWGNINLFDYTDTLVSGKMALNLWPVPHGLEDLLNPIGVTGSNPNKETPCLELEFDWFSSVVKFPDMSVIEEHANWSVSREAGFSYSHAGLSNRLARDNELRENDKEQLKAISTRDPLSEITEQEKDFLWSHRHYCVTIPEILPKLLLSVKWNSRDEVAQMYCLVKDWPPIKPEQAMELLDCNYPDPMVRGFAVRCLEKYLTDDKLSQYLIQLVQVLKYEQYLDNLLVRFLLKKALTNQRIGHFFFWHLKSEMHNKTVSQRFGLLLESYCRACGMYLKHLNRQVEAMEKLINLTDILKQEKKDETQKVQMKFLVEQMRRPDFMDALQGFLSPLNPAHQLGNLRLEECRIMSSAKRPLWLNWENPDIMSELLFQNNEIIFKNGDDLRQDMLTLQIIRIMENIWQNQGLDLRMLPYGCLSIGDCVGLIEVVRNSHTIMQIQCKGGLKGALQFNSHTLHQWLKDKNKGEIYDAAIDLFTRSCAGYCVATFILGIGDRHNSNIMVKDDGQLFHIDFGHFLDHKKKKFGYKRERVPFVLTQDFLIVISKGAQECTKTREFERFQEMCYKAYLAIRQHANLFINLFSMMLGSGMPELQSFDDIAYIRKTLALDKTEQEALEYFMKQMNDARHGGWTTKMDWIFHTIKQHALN
Sequence of H1047R PIK3CA enzyme (P27986 whole entry partner): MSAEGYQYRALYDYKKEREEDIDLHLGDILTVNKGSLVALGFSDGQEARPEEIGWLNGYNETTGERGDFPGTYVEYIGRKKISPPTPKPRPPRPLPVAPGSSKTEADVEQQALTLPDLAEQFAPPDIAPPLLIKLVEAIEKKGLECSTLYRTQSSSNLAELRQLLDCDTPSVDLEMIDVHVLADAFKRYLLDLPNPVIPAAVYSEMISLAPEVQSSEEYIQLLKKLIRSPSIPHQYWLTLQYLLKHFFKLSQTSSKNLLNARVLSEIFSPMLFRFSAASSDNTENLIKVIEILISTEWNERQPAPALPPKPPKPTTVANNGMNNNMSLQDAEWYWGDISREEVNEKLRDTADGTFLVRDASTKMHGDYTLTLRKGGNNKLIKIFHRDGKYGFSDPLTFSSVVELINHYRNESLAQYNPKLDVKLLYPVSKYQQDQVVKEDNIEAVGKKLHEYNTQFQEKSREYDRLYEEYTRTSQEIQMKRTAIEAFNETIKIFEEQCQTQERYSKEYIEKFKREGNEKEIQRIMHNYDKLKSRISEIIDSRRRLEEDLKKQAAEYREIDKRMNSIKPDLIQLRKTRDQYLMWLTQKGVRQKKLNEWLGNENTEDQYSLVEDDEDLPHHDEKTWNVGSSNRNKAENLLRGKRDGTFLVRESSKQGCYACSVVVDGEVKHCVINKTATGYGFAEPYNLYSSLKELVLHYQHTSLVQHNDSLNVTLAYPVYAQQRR

The experiment has as its target H1047R PIK3CA enzyme (Homo sapiens, UniProt P42336, H1047R). Description: ADP-Glo Biochemical PIK3CA Kinase Assay. Conditions: ADP-Glo biochemical PIK3CA kinase assay.
One may read the pIC50 as the IC50 on a negative log10 scale, so that one unit is a factor of ten. A high value points to a small IC50. `Cc1ccccc1Nc1ncc(C(=O)N[C@H]2CC[C@]3(CCC(=O)N3)CC2)cc1NC(=O)c1csc2ccccc12` [I-617] gave a pIC50 of 5.00 to 6.00.

As to `Cc1ccccc1Nc1ncc(C(=O)N2CC(C)(O)C2)cc1NC(=O)c1csc2ccccc12` [I-620], the pIC50 is 5.00 to 6.00.

In turn, `Cc1ccccc1Nc1ncc(C(=O)N2CCC(F)C2)cc1NC(=O)c1csc2ccccc12` (centres unmarked) [I-623] showed a pIC50 of 6.00 to 6.30.

The compound `Cc1ccccc1Nc1ncc(C(=O)N2CC(CF)C2)cc1NC(=O)c1csc2ccccc12` [I-628] had a pIC50 of 5.00 to 6.00.

In turn, `Cc1ccccc1Nc1ncc(C(=O)O)cc1NC(=O)c1csc2ccccc12` [I-629] had a pIC50 of 5.00 to 6.00.

In the case of `Nc1cc(C(=O)NC2CS(=O)(=O)C2)cnc1N1CCOc2ccccc21` [I-630], the pIC50 is 5.00 to 6.00.

`O=C(O)c1cnc(N2CCOc3ccccc32)c(NC(=O)c2csc3ccccc23)c1` [I-631] showed a negative logarithm of the IC50 (pIC50) of 5.00 to 6.00.

The compound `Nc1cc(C(=O)O)cnc1N1CCOc2ccccc21` [I-632] had a pIC50 of 5.00 to 6.00.

`O=C(NC1CC(F)(F)C1)c1cnc(Nc2ccccc2Cl)c(NC(=O)c2csc3ccccc23)c1` [I-641]: the pIC50 is 5.00 to 6.00.

For the compound `CNC(=O)c1cnc(Nc2ccccc2C)c(NC(=O)c2nc3cccc(C(F)(F)F)n3n2)c1` [I-642], the negative logarithm of the IC50 (pIC50) is 5.00 to 6.00.

`CNC(=O)c1cnc(Nc2ccccc2C)c(NC(=O)CCc2ccncc2C)c1` [I-643] had a pIC50 of 5.00 to 6.00.

As to `CNC(=O)c1cnc(Nc2ccccc2C)c(NC(=O)c2onc3ccccc23)c1` [I-644], the pIC50 is 5.00 to 6.00.

As for `CNC(=O)c1cnc(Nc2ccccc2C)c(NC(=O)c2ccc3cnccc3n2)c1` [I-645], the negative logarithm of the IC50 (pIC50) was 5.00 to 6.00.

In the case of `CNC(=O)c1cnc(Nc2ccccc2C)c(NC(=O)Cn2ccccc2=O)c1` [I-646], the pIC50 was 5.00 to 6.00.

In the case of `CNC(=O)c1cnc(Nc2ccccc2C)c(NC(=O)c2ccn3ccnc3c2)c1` [I-647], the pIC50 is 5.00 to 6.00.

Regarding `CNC(=O)c1cnc(Nc2ccccc2C)c(NC(=O)c2ccc3cnccc3c2)c1` [I-648], the pIC50 is 5.00 to 6.00.

For `CNC(=O)c1cnc(Nc2ccccc2C)c(NC(=O)C2CCc3ccccc3O2)c1` (centres unmarked) [I-649], the pIC50 is 5.00 to 6.00.

The compound `CNC(=O)c1cnc(Nc2ccccc2C)c(NC(=O)c2ccnc(C(F)F)c2)c1` [I-650] gave a negative-log IC50 (pIC50) of 5.00 to 6.00.

Regarding `CNC(=O)c1cnc(Nc2ccccc2C)c(NC(=O)Cc2noc3ccccc23)c1` [I-651], the pIC50 is 5.00 to 6.00.

`CNC(=O)c1cnc(Nc2ccccc2C)c(NC(=O)c2noc3ccccc23)c1` [I-671]: the pIC50 was 5.00 to 6.00.

As to `Nc1ncc(C(=O)O)cc1NC(=O)c1csc2ccccc12` [I-673], the negative-log IC50 (pIC50) is 5.00 to 6.00.

Consider `COC(=O)c1cnc(N)c(NC(=O)c2csc3ccccc23)c1` [I-674], for which the pIC50 is 5.00 to 6.00.

Turning to `Nc1ncc(C(=O)NC2CC(F)(F)C2)cc1NC(=O)c1csc2ccccc12` [I-675], the negative logarithm of the IC50 (pIC50) is 5.00 to 6.00.

`Nc1ncc(C(=O)N[C@H]2C[C@@H](C(N)=O)C2)cc1NC(=O)c1csc2ccccc12` [I-689] had a pIC50 of 5.00 to 6.00.

In the case of `CC(NC(=O)c1cnc(N)c(NC(=O)c2csc3ccccc23)c1)c1cn[nH]c1` (centres unmarked) [I-690], the pIC50 was 5.00 to 6.00.

`Cc1ccccc1Nc1ncc(C(=O)N[C@H]2C[C@@H](C(=O)N(C)C)C2)cc1NC(=O)c1csc2ccccc12` [I-694] gave a pIC50 of 5.00 to 6.00.

On to `Cc1ccccc1Nc1ncc(C(=O)NCc2ccc(Cl)cc2)cc1NC(=O)c1cc(F)cc(C(F)(F)F)c1` [I-702], for which the pIC50 is 6.00 to 6.30.

As to `COc1cncc(CNC(=O)c2cnc(Nc3ccccc3C)c(NC(=O)c3cc(F)cc(C(F)(F)F)c3)c2)c1` [I-707], the pIC50 is 5.00 to 6.00.

As for `CNC(=O)c1cnc(Nc2ccccc2C)c(NC(=O)c2ccc(C#N)c(C(F)(F)F)c2)c1` [I-710], the pIC50 is 6.00 to 6.30.

With `CNC(=O)c1cnc(Nc2ccccc2C)c(NC(=O)c2cc(F)c(C(F)(F)F)c(F)c2)c1` [I-717], the pIC50 is 6.00 to 6.30.

With `Cc1ccccc1Nc1ncc(C(=O)NCc2ncccn2)cc1NC(=O)c1cc(F)cc(C(F)(F)F)c1` [I-719], the negative-log IC50 (pIC50) is 5.00 to 6.00.

`COc1ccnc(CNC(=O)c2cnc(Nc3ccccc3C)c(NC(=O)c3cc(F)cc(C(F)(F)F)c3)c2)c1` [I-720] gave a pIC50 of 5.00 to 6.00.

`CNC(=O)c1cnc(Nc2ccccc2C)c(NC(=O)c2ccc(F)c(F)c2)c1` [I-722] gave a pIC50 of 5.00 to 6.00.

Compound `CNC(=O)c1cnc(Nc2ccccc2C)c(NC(=O)c2ccc(C)c(F)c2)c1` [I-723] gave a negative-log IC50 (pIC50) of 5.00 to 6.00.

`COC(=O)CCS(=O)(=O)c1cnc(Nc2ccccc2C)c(NC(=O)c2cc(F)cc(C(F)(F)F)c2)c1` [I-728] gave a pIC50 of 5.00 to 6.00.

With `CNC(=O)c1cnc(Nc2nccc3[nH]ccc23)c(NC(=O)c2csc3ccccc23)c1` [I-729], the pIC50 was 5.00 to 6.00.

The compound `CNC(=O)c1cnc(Nc2cnccc2C)c(NC(=O)c2csc3ccccc23)c1` [I-730] gave a pIC50 of 5.00 to 6.00.

Take `CNC(=O)c1cnc(Nc2ncccc2C(C)C)c(NC(=O)c2csc3ccccc23)c1` [I-731]: the pIC50 was 5.00 to 6.00.

Turning to `CNC(=O)c1cnc(Nc2c3c(nn2C)CCCC3)c(NC(=O)c2csc3ccccc23)c1` [I-732], the negative-log IC50 (pIC50) is 5.00 to 6.00.

As for `CNC(=O)c1cnc(Nc2ccc3c(c2)COC3)c(NC(=O)c2csc3ccccc23)c1` [I-733], the pIC50 is 5.00 to 6.00.

In turn, `CCc1nccnc1Nc1ncc(C(=O)NC)cc1NC(=O)c1csc2ccccc12` [I-734] gave a pIC50 of 5.00 to 6.00.

Compound `CCn1nccc1Nc1ncc(C(=O)NC)cc1NC(=O)c1csc2ccccc12` [I-735] showed a negative-log IC50 (pIC50) of 5.00 to 6.00.

`CNC(=O)c1cnc(Nc2ccc3cnn(C)c3c2)c(NC(=O)c2csc3ccccc23)c1` [I-736]: the negative-log IC50 (pIC50) is 5.00 to 6.00.

Regarding `CNC(=O)c1cnc(Nc2ccnc3c2ccn3C)c(NC(=O)c2csc3ccccc23)c1` [I-737], the pIC50 was 5.00 to 6.00.

The compound `CNC(=O)c1cnc(Nc2ccc3c(c2)OCC3)c(NC(=O)c2csc3ccccc23)c1` [I-738] gave a pIC50 of 5.00 to 6.00.

On to `CNC(=O)c1cnc(Nc2cncc(F)c2)c(NC(=O)c2csc3ccccc23)c1` [I-739], for which the pIC50 is 5.00 to 6.00.

`CNC(=O)c1cnc(Nc2ccc3cccnc3c2)c(NC(=O)c2csc3ccccc23)c1` [I-740]: the negative-log IC50 (pIC50) is 5.00 to 6.00.

Consider `CNC(=O)c1cnc(Nc2cncc3ccccc23)c(NC(=O)c2csc3ccccc23)c1` [I-741], for which the pIC50 was 5.00 to 6.00.

Compound `CNC(=O)c1cnc(Nc2ncccc2C2CC2)c(NC(=O)c2csc3ccccc23)c1` [I-742] showed a negative logarithm of the IC50 (pIC50) of 5.00 to 6.00.

For the compound `CNC(=O)c1cnc(Nc2c3c(nn2C)CCC3)c(NC(=O)c2csc3ccccc23)c1` [I-743], the pIC50 is 5.00 to 6.00.

Take `CNC(=O)c1cnc(Nc2ccc3c(c2)N(C)C(=O)CO3)c(NC(=O)c2csc3ccccc23)c1` [I-744]: the negative logarithm of the IC50 (pIC50) is 5.00 to 6.00.

Take `Cc1ccccc1Nc1ncc(C(=O)NCc2cn(C)nc2C)cc1NC(=O)c1cc(F)cc(C(F)(F)F)c1` [I-746]: the pIC50 is 5.00 to 6.00.

With `Cc1ccccc1Nc1ncc(C(=O)NCc2nnc3ccccn23)cc1NC(=O)c1cc(F)cc(C(F)(F)F)c1` [I-759], the negative-log IC50 (pIC50) was 5.00 to 6.00.

Turning to `CNC(=O)c1cnc(Nc2ccccc2C)c(NC(=O)c2cc(Cl)nc(C(F)(F)F)c2)c1` [I-762], the pIC50 was 6.00 to 6.30.

In turn, `CNC(=O)c1cnc(Nc2ccccc2C)c(NC(=O)c2coc3c(F)cc(Cl)cc23)c1` [I-766] showed a pIC50 of 6.00 to 6.30.

The compound `Cc1ccccc1Nc1ncc(-c2ccn[nH]2)cc1NC(=O)c1cc(F)cc(C(F)(F)F)c1` [I-767] had a negative-log IC50 (pIC50) of 5.00 to 6.00.
